A short description of series [1]: Determination of thermodynamic solubility in phosphate buffer. Conditions: ammonium phosphate buffer pH7.4, 290 mOsm, 37° C., nominal 1 mg/mL; for solubility at 1 h: pH 7.4, aqueous buffer, thermodynamic from solid, read-out: Solubility in PO4 buffer. Format: physicochemical. As for the experimental part:
Determination of Thermodynamic Solubility in Phosphate Buffer
The thermodynamic solubility of compound was determined in Ammonium Phosphate Buffer (pH7.4, 290 mOsm). Compounds were made up at a nominal concentration of 1 mg/mL, vortexed then placed on a shaker for 1 h, 37° C. at approximately 950 rpm. Following incubation samples were transferred to eppendorf tubes and centrifuged at 15,000 g (r.c.f.) for 10 minutes at 37° C. The concentration of compound in the supernatant was determined by LC-MS/MS analysis using a calibration line prepared from a DMSO stock.

Series [2] concerns the target Human plasma kallikrein (Homo sapiens (Human), UniProt P03952). Description: Determination of the IC50 for plasma kallikrein. The class given is biochemical. Particulars: 37° C., read-out: IC50 (human PKal). The method in brief:
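Residual activity (initial rate, absorbance at 410 nm) gave the IC50. Reactions at 37° C combined human plasma kallikrein, substrate H-DPro-Phe-Arg-AFC and a range of inhibitor concentrations.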

Series [3] can be described thus: physchem. Particulars: pH 7, aqueous buffer, kinetic from dmso stock. As to the method: Determination of the Kinetic Solubility in Phosphate Buffer
After shaking for approximately 30 seconds the reduction in light transmission of these samples, at 650 nm, was measured (Molecular Devices Spectromax UV/visible spectrophotometer). A second measurement was taken at approximately 30 seconds later.

Series [4] addresses Human KLK1 (Homo sapiens (Human), UniProt P06870). Briefly: Determination of the IC50 for KLK1. Format: biochemical. Conditions: Human KLK1, 37° C., substrate H-DVal-Leu-Arg-AFC; Table 13. The method in brief: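 Human KLK1 incubated at 37 °C with fluorogenic substrate H-DVal-Leu-Arg-AFC and a range of test compound concentrations. Residual activity was taken as initial reaction rate from absorbance change at 410 nm, and the IC50 derived from it.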

Where [5] appears, read: fluorogenic substrate H-DPro-Phe-Arg-AFC.

Molecules are shown by their SMILES. Converted amounts (≈) assume the structure as drawn. Read-outs that look alike come from different tables or passages of the source.

A word on the solubility: it is the dissolved amount per volume that the medium holds. In general, IC50 refers to the midpoint of a concentration-inhibition curve.

Chain of Human KLK1 (P06870 25-262): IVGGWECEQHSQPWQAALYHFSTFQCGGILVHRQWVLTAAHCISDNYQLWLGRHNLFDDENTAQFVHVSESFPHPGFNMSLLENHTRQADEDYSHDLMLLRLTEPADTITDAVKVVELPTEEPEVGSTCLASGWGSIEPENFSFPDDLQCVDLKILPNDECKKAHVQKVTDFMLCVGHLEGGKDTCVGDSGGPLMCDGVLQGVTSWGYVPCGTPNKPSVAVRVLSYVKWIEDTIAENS
Chain of Human plasma kallikrein (P03952 391-638): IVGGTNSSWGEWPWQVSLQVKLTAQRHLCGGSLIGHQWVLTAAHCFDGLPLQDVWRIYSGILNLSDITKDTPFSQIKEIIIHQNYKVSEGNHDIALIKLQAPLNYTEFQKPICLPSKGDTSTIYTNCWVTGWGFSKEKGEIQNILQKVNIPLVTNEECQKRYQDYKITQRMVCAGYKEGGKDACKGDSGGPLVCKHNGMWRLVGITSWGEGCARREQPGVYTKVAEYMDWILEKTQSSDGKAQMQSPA
Chain of Human plasma kallikrein (P03952 20-390 partner): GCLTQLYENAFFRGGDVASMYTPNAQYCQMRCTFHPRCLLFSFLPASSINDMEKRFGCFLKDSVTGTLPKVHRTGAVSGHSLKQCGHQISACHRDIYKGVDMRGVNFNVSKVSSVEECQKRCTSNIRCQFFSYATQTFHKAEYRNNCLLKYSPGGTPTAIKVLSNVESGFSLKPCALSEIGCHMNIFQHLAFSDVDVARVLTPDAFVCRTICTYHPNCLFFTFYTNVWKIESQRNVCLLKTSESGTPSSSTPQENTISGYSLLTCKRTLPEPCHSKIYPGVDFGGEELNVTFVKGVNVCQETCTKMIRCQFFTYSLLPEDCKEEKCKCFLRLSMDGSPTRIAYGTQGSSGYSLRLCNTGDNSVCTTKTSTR

As to `CCOc1ccc(C[C@@H](NC(=O)c2ccc(C(F)(F)F)cc2)C(=O)N[C@@H](Cc2ccccc2)C(=O)NCc2ccc(CN)cc2)cc1` [Example 56, N-[(R)-1-[(S)-1-(4-Aminomethyl-benzylcarbamoyl)-2-phenyl-ethylcarbamoyl]-2-(4-ethoxy-phenyl)-ethyl]-4-trifluoromethyl-benzamide], the solubility at 1 h in series [1] was found to be 0.9 µg/mL (≈ 1.39 µM). The IC50 in series [2] (setting [5]) was found to be 500 nM. Moreover, the solubility in series [3] was 36 µM (≈ 23.3 µg/mL).

For the molecule `CCOc1ccc(C[C@@H](NC(=O)c2ccc(F)c(F)c2)C(=O)N[C@@H](Cc2ccccc2)C(=O)NCc2ccc(CN)cc2)cc1` [Example 59, N-[(R)-1-[(S)-1-(4-Aminomethyl-benzylcarbamoyl)-2-phenyl-ethylcarbamoyl]-2-(4-ethoxy-phenyl)-ethyl]-3,4-difluoro-benzamide], in series [1], the solubility at 1 h turned out to be 7.7 µg/mL (≈ 12.5 µM). Also, in series [2] (setting [5]), the concentration for half-maximal inhibition (IC50) stood at 78 nM. Further, the concentration in solution in series [3] (solubility) came to 36 µM (≈ 22.1 µg/mL).

On to `CCOc1ccc(C[C@@H](NC(=O)C2CCCCC2)C(=O)N[C@@H](Cc2ccccc2)C(=O)NCc2ccc(CN)cc2)cc1` [Example 75, Cyclohexanecarboxylic acid [(R)-1-[(S)-1-(4-aminomethyl-benzylcarbamoyl)-2-phenyl-ethylcarbamoyl]-2-(4-ethoxy-phenyl)-ethyl]-amide], for which the solubility at 1 h in series [1] came out at 1.06 µg/mL (≈ 1.81 µM). Moreover, the half-inhibitory concentration (IC50) in series [2] (substrate H-DPro-Phe-Arg-AFC) was 270 nM; in series [4], more than 10 µM.

For `CCOc1ccc(C[C@@H](NC(=O)c2ccccn2)C(=O)N[C@@H](Cc2ccccc2)C(=O)NCc2ccc(CN)cc2)cc1` [Example 81, Pyridine-2-carboxylic acid [(R)-1-[(S)-1-(4-aminomethyl-benzylcarbamoyl)-2-phenyl-ethylcarbamoyl]-2-(4-ethoxy-phenyl)-ethyl]-amide], the solubility at 1 h in series [1] was 1.3 µg/mL (≈ 2.24 µM). Further, the IC50 in series [2] (substrate H-DPro-Phe-Arg-AFC) was 40 nM; in series [4] it was more than 10 µM.

On to `CCOc1ccc(C[C@@H](NC(=O)c2[nH]ccc2C)C(=O)N[C@@H](Cc2ccccc2)C(=O)NCc2ccc(CN)cc2)cc1` [Example 124, 3-Methyl-1H-pyrrole-2-carboxylic acid [(R)-1-[(S)-1-(4-aminomethyl-benzylcarbamoyl)-2-phenyl-ethylcarbamoyl]-2-(4-ethoxy-phenyl)-ethyl]-amide], for which the solubility at 1 h in series [1] came out at 64.5 µg/mL (≈ 111 µM). Moreover, the IC50 worked out at 20 nM in series [2] (substrate H-DPro-Phe-Arg-AFC) and 8.4 µM in series [4].

Consider `CCOc1ccc(C[C@@H](NC(=O)c2ccccc2)C(=O)N[C@@H](Cc2ccsc2)C(=O)NCc2ccc(CN)cc2)cc1` [Example 151], for which, in series [1] (1 h), the “solubility in PO4 buffer” value amounted to 4.31 µg/mL (≈ 7.37 µM). Besides, the IC50 was 9 nM in series [2] (substrate H-DPro-Phe-Arg-AFC) and more than 10 µM in series [4].

`CCOc1ccc(C[C@@H](NC(=O)c2sccc2C)C(=O)N[C@@H](Cc2ccccc2)C(=O)NCc2ccc(CN)cc2)cc1` [Example 119, 3-Methyl-thiophene-2-carboxylic acid [(R)-1-[(S)-1-(4-aminomethyl-benzylcarbamoyl)-2-phenyl-ethylcarbamoyl]-2-(4-ethoxy-phenyl)-ethyl]-amide]: the solubility at 1 h in series [1] came out at 1.61 µg/mL (≈ 2.69 µM). Further, the IC50 in series [2] (substrate H-DPro-Phe-Arg-AFC) was 15 nM; in series [4], 6.1 µM.

For the molecule `CCOc1ccc(C[C@@H](NC(=O)c2ccccc2)C(=O)N[C@@H](Cc2ccc(Cl)c(Cl)c2)C(=O)NCc2ccc(CN)cc2)cc1` [Example 141, N-[(R)-1-[(S)-1-(4-Aminomethyl-benzylcarbamoyl)-2-(3,4-dichloro-phenyl)-ethylcarbamoyl]-2-(4-ethoxy-phenyl)-ethyl]-benzamide], the solubility at 1 h in series [1] came to 0.15 µg/mL (≈ 0.232 µM). Further, the IC50 is 55 nM in series [2] (substrate H-DPro-Phe-Arg-AFC) and more than 10 µM in series [4].

On to `CCOc1ccc(C[C@@H](NC(=O)c2ccccc2)C(=O)N[C@@H](Cc2ccccc2)C(=O)NCc2ccc(CN)c(Cl)c2)cc1` [Example 155, N-[(R)-1-[(S)-1-(4-Aminomethyl-3-chloro-benzylcarbamoyl)-2-phenyl-ethylcarbamoyl]-2-(4-ethoxy-phenyl)-ethyl]-benzamide], for which the solubility at 1 h in series [1] is 0.44 µg/mL (≈ 0.718 µM). For the same molecule, the half-maximal inhibitory concentration (IC50) in series [2] (substrate H-DPro-Phe-Arg-AFC) was 22 nM; in series [4], more than 10 µM.

For the molecule `CCOc1ccc(C[C@@H](NC(=O)c2ccc(OC)cc2)C(=O)N[C@@H](Cc2cccnc2)C(=O)NCc2ccc(CN)cc2)cc1` [Example 160, N-[(R)-1-[(S)-1-(4-Aminomethyl-benzylcarbamoyl)-2-pyridin-3-yl-ethylcarbamoyl]-2-(4-ethoxy-phenyl)-ethyl]-4-methoxy-benzamide], in series [1], the solubility at 1 h stood at 20.4 µg/mL (≈ 33.5 µM). Moreover, the 50% inhibitory concentration (IC50) in series [2] (substrate H-DPro-Phe-Arg-AFC) is 10 nM; in series [4], more than 10 µM.

Consider `CCOc1ccc(C[C@@H](NC(=O)c2ccccc2)C(=O)N[C@@H](Cc2cccs2)C(=O)NCc2ccc(CN)cc2)cc1` [Example 150, N-[(R)-1-[(S)-1-(4-Aminomethyl-benzylcarbamoyl)-2-thiophen-2-yl-ethylcarbamoyl]-2-(4-ethoxy-phenyl)-ethyl]-benzamide], for which the solubility at 1 h in series [1] amounted to 0.12 µg/mL (≈ 0.205 µM). For the same molecule, the values for the IC50 in series [2] (substrate H-DPro-Phe-Arg-AFC) and in series [4] were 51 nM and more than 10 µM, respectively.

For the molecule `CCOc1ccc(C[C@@H](NC(=O)c2sccc2N)C(=O)N[C@@H](Cc2ccccc2)C(=O)NCc2ccc(CN)cc2)cc1` [Example 125, 3-Amino-thiophene-2-carboxylic acid [(R)-1-[(S)-1-(4-aminomethyl-benzylcarbamoyl)-2-phenyl-ethylcarbamoyl]-2-(4-ethoxy-phenyl)-ethyl]-amide], the solubility at 1 h in series [1] was determined as 43.6 µg/mL (≈ 72.7 µM). In addition, the IC50 in series [2] (substrate H-DPro-Phe-Arg-AFC) stood at 10 nM; in series [4] it was 7 µM.

On to `CCOc1ccc(C[C@@H](NC(=O)c2sccc2Cl)C(=O)N[C@@H](Cc2cccnc2)C(=O)NCc2ccc(CN)cc2)cc1` [Example 175, 3-Chloro-thiophene-2-carboxylic acid [(R)-1-[(S)-1-(4-aminomethyl-benzylcarbamoyl)-2-pyridin-3-yl-ethylcarbamoyl]-2-(4-ethoxy-phenyl)-ethyl]-amide], for which the solubility at 1 h in series [1] was found to be 23.4 µg/mL (≈ 37.7 µM). For the same molecule, the IC50 was 3 nM in series [2] (substrate H-DPro-Phe-Arg-AFC) and more than 10 µM in series [4].

As to `CCOc1ccc(C[C@@H](NC(=O)c2ccncc2)C(=O)N[C@@H](Cc2ccccc2)C(=O)NCc2ccc(CN)cc2)cc1` [Example 71, N-[(R)-1-[(S)-1-(4-Aminomethyl-benzylcarbamoyl)-2-phenyl-ethylcarbamoyl]-2-(4-ethoxy-phenyl)-ethyl]-isonicotinamide], the solubility at 1 h in series [1] worked out at 22.1 µg/mL (≈ 38.1 µM). In addition, the IC50 in series [2] (substrate H-DPro-Phe-Arg-AFC) was 77 nM; in series [4], more than 10 µM.

For `CCOc1ccc(C[C@@H](NC(=O)c2ccccc2)C(=O)N[C@@H](Cc2cscn2)C(=O)NCc2ccc(CN)cc2)cc1` [Example 152, N-[(R)-1-[(S)-1-(4-Aminomethyl-benzylcarbamoyl)-2-thiazol-4-yl-ethylcarbamoyl]-2-(4-ethoxy-phenyl)-ethyl]-benzamide], the solubility at 1 h in series [1] stood at 122 µg/mL (≈ 209 µM). Further, the results for the IC50 in series [2] (substrate H-DPro-Phe-Arg-AFC) and in series [4] were 23 nM and more than 10 µM, respectively.

`CCOc1ccc(C[C@@H](NC(=O)c2ccccc2)C(=O)N[C@@H](Cc2ccccn2)C(=O)NCc2ccc(CN)cc2)cc1` [Example 140, N-[(R)-1-[(S)-1-(4-Aminomethyl-benzylcarbamoyl)-2-pyridin-2-yl-ethylcarbamoyl]-2-(4-ethoxy-phenyl)-ethyl]-benzamide]: the solubility at 1 h in series [1] turned out to be 79.6 µg/mL (≈ 137 µM). The IC50 in series [2] (substrate H-DPro-Phe-Arg-AFC) was 45 nM; in series [4], more than 10 µM.

Turning to `CCOc1ccc(C[C@@H](NC(=O)c2cccnc2)C(=O)N[C@@H](Cc2ccccc2)C(=O)NCc2ccc(CN)cc2)cc1` [Example 70, N-[(R)-1-[(S)-1-(4-Aminomethyl-benzylcarbamoyl)-2-phenyl-ethylcarbamoyl]-2-(4-ethoxy-phenyl)-ethyl]-nicotinamide], the solubility at 1 h in series [1] was 11.5 µg/mL (≈ 19.9 µM). The values for the IC50 in series [2] (substrate H-DPro-Phe-Arg-AFC) and in series [4] were 126 nM and 7.5 µM, respectively.

On to `CCOc1ccc(C[C@@H](NC(=O)c2ccccc2)C(=O)N[C@@H](Cc2ccccc2)C(=O)NCc2ccc(CN)c(F)c2)cc1` [Example 154, N-[(R)-1-[(S)-1-(4-Aminomethyl-3-fluoro-benzylcarbamoyl)-2-phenyl-ethylcarbamoyl]-2-(4-ethoxy-phenyl)-ethyl]-benzamide], for which, in series [1], the solubility at 1 h was found to be 3.14 µg/mL (≈ 5.26 µM). For the same molecule, the IC50 in series [2] (substrate H-DPro-Phe-Arg-AFC) is 21 nM; in series [4] it was more than 10 µM.

In the case of `CCOc1ccc(C[C@@H](NC(=O)c2ccccc2)C(=O)N[C@@H](Cc2cccnc2)C(=O)NCc2ccc(CN)cc2)cc1` [Example 145, N-[(R)-1-[(S)-1-(4-Aminomethyl-benzylcarbamoyl)-2-pyridin-3-yl-ethylcarbamoyl]-2-(4-ethoxy-phenyl)-ethyl]-benzamide], in series [1], the solubility at 1 h was 68.9 µg/mL (≈ 119 µM). In addition, the IC50 was 25 nM in series [2] (substrate H-DPro-Phe-Arg-AFC) and more than 10 µM in series [4].

On to `CCOc1ccc(C[C@@H](NC(=O)c2ccccc2)C(=O)N[C@@H](Cc2csc3ccccc23)C(=O)NCc2ccc(CN)cc2)cc1` [Example 153, N-[(R)-1-[(S)-1-(4-Aminomethyl-benzylcarbamoyl)-2-benzo[b]thiophen-3-yl-ethylcarbamoyl]-2-(4-ethoxy-phenyl)-ethyl]-benzamide], for which the solubility at 1 h in series [1] came out at 0.19 µg/mL (≈ 0.299 µM). For the same molecule, the figures for the half-maximal inhibitory concentration (IC50) in series [2] (substrate H-DPro-Phe-Arg-AFC) and in series [4] were 10 nM and more than 10 µM, respectively.

These data come from patent publication US9234000B2, “Benzylamine derivatives as inhibitors of plasma kallikrein” (KalVista Pharmaceuticals Limited, priority 2011, dated 2016).
